This is an account of results in patent US9649305B2, “PFKFB3 inhibitor and methods of use as an anti-cancer therapeutic” (ADVANCED CANCER THERAPEUTICS, LLC, priority 2012, dated 2017).

Data set [1] concerns lung cancer model, pancreatic cancer model, colon cancer model. Description: Tumor growth inhibition in mouse cancer models. The conditions noted are these: mouse cancer models, during treatment. On the procedure:
Studies determining efficacy of PFK-158 at inhibiting tumor growth in mouse cancer models were performed. These studies were carried out with PFK-158 alone and in combination with compounds currently used in the treatment of cancer patients. Studies were performed in a lung cancer model, a pancreatic cancer model, and in a colon cancer model.
Efficacy of PFK-158 was studied in vivo in tumor models. Several tumor models were used in these studies (the Lewis lung carcinoma, or LLC model, the CT-26 colon carcinoma tumor model, or the BXPC3 pancreatic cancer model). The experimental protocol for the LLC study is described below. Subsequent to subcutaneous inoculation of tumor cells, tumors started to develop and once tumors reached the desired volume of 100-125 mm^3 on average, treatment was initiated. Tumor volume was monitored in both groups and the average for both the control and treatment groups was measured three times a week, as well as body weights.
Briefly, normal female C57BL/6 mice at 7-8 weeks of age were used for the study. Mice were housed in microisolator housing, with food and water provided as libitum, and quarantined for 4 days prior to the initiation of the study. LLC cells were maintained in a monolayer culture in DMEM medium supplemented with 10% heat inactivated fetal calf serum, 100 U/ml penicillin and 100 μg/ml streptomycin, and L-glutamine (2 mM) at 37° C. in an atmosphere of 5% CO2 in air. The tumor cells were routinely sub-cultured twice a week. The cells growing in an exponential phase were harvested and counted for tumor inoculation. Each mouse was inoculated subcutaneously at the right flank with the LLC tumor cells (3×10^5) in 0.1 ml of PBS for tumor development. When athymic nude mice were used, as for the BxPC3 model, then the strain of mice is slightly different. Furthermore, the use of Matrigel supports tumor development, meaning that cells are suspended in 100 μl of a mixture of medium/Matrigel (1:1) and are then subcutaneously implanted in the right flank region. Animals were monitored for tumor growth daily after cell implantation. When tumor volumes reached approximately 100-125 mm^3, mice were randomized into groups of 8 mice each using only mice having tumor volumes closest to the mean value. Tumor volumes were measured using the formula V=L×W×H×π/6, where L and W represent the longer and shorter diameters of the tumor and H represents the height of the tumor. Treatment began following randomization. PFK-158 was administered IP at a dose of 60 mg/kg on days 1, 3, 5, 7, 9, 11, and 13.
Similar protocols were used for the other studies using different models; differences included the use of Balbc/nude mice; administering larger number of cancer cells; and use of Matrigel.

Data set [2] deals with Jurkat cells. The experiment in a line: Inhibition of 14C-2-deoxyglucose uptake. Format: cell-based. The conditions noted are these: Homo sapiens; Table 1; Jurkat cells; read-out: IC50, Inhibition of 2 deoxyglucose uptake. On the procedure: Inhibition of PFKFB3 results in inhibiting glycolysis. Several feedback or feedforward activation and inhibition mechanisms exist so that, by a feedback mechanism, inhibiting the activity of PFKFB3 might inhibit glucose uptake by cells. An assay was developed to determine if there was inhibition of glucose uptake following exposure PFK-158. Briefly, Jurkat cells were plated at 10^5 cells/mL in RPMI 1640 supplemented with 10% fetal bovine serum and 50 μg/mL gentamicin sulfate. Cells were immediately treated with vehicle or 0.5 μmol/L of PFK-158 for 3 hours and subsequently placed in glucose-free RPMI 1640 for 30 min. ^14C-2-deoxyglucose (0.25 μCi/mL; Perkin Elmer) was added for an additional 60 min and cells were then washed three times with ice-cold RPMI 1640 containing no glucose. Cell lysates were collected in 500 μL of 0.1% SDS and scintillation counts (counts/min) were measured on 400 μL of lysate. Counts were normalized to protein concentration.

Data set [3] has as its target T1, PFKFB3 (Homo sapiens, UniProt Q16875). Description: Enzymatic activity of PFKFB3 in cells (F2,6BP levels, Van Schaftingen method). Details: endogenous in cells; host or cells: Jurkat cells. The conditions noted are these: Table 1; F2,6BP levels, Jurkat cells; read-out: IC50, Enzymatic activity of PFKFB3 in cells. Format: cell-based. On the procedure: Inhibition of PFKFB3 can also be measured in cells by measuring fructose-2,6-biphosphate levels according to the Van Schaftingen method (Eur. J. of Biochem, 129: 191 (1982)). This method enables measurement of the inhibition in a cellular environment, a model more relevant than the pure recombinant protein. Briefly, Jurkat cells were plated at 1×10^5 cells/mL and incubated with different concentrations of PFK-158 for 3 hours. Samples were collected and cells were lysed. Extracts were characterized as described in previous reports and normalized to protein concentration.

Data set [4] can be described thus: IV pharmacokinetics in mice. Format: in vivo, Balbc mice. The conditions noted are these: mouse, plasma, 5 mg/kg, Table 2, Balbc mice, IV dosing. On the procedure:
The pharmacokinetic (PK) parameters for PFK-158 were determined in mice following IV (intravenous) administration in mice and rats. A typical study design includes six animals (male or female) 7 to 8 weeks old.
Mouse pharmacokinetic properties using a dose of 5 mg/kg were determined after IV administration using a 10% DMSO, 10% PEG-200, 10% Solutol:ethanol (1:1) and 70% D5W solution or any other pharmaceutically acceptable parenteral formulation. Blood samples were collected at different intervals. Plasma samples were extracted and analyzed using an LC-MS/MS method. Similar protocols were used for the rat PK study (Sprague Dawley rats; 30 mg/kg), although the formulation for rat PK studies differed (30% Captisol, pH 3.0 solution). Time vs. plasma concentration plots were prepared as shown in FIGS. 4 (BalbC mice) and 5 (SD rats), respectively. Pharmacokinetic parameters were calculated and are provided below in Table 7.

Data set [5] can be described thus: Maximum tolerated dose study. Format: in vivo. The following applies: C57/B16, mouse, in vivo; 3 days on/3 days off schedule; read-out: MTD. On the procedure:
Several maximum tolerated dose studies and toxicology studies were performed and the results indicated PFK-158 is safer than PFK-015. Studies were performed in C57/B16 mice and SD rats.

Data set [6] addresses T1, PFKFB3. The experiment in a line: Enzymatic activity of recombinant PFKFB3, ADP-Glo assay. Format: biochemical. The conditions noted are these: Table 1; read-out: IC50, Enzymatic activity of PFKFB3, ADP Glo Assay. On the procedure: The inducible bifunctional 6-Phosphofructo-2-kinase/fructose2,6-biphosphatase enzyme (PFKFB3) was expressed and purified in order to determine if PFK-158 inhibits enzymatic activity. PFKFB3 was prepared by expression in E. coli and purified by GST column and column chromatography. […] The recombinant protein was pure and active as determined by the results of a commercially available kinase activity assay (ADP-Glo™, Promega, Madison, Wis.).

Data set [7] is described as follows: Repeat-dose toxicology study in SD rats. Format: in vivo. On the procedure:
Toxicology studies were performed in SD rats comparing PFK-158 and PFK-015 using a repeat dosing schedule. The studies were performed at dose levels ranging from 5 to 30 mg/kg and animals were monitored for weight loss, behavior, clinical signs, and clinical chemistries. At the end of the study, gross pathology and histopathology were performed.

Data set [8] has as its system Jurkat cell line (leukemia cell line). Description: Toxicity / cell growth of Jurkat cell line. Type of data set: cell-based. The conditions noted are these: Homo sapiens, Jurkat; Table 1; read-out: IC50, toxicity of Jurkat cell line (leukemia cell line). On the procedure: The ability of PFK-158 to kill or inhibit the proliferation of cancer cells was measured using either the MTT assay, the alamarBlue® assay (Invitrogen, Grand Island, N.Y.), or the CellTiter Glo™ assay (Promega, Madison, Wis.) using 48 or 72 hours exposure.
Cells of the desired tumor cell line were plated at 2×10^5 cells/ml in 96 well plates. Twice the indicated concentrations of the compounds of the invention were added to cells the following day in an equal volume of media. 72 hours later, cells were lysed and subjected to ATP determination using the CellTiter-Glo™ Luminescent Cell Viability Assay kit. Experiments were performed in triplicate. When using the MTT assay or the alamarBlue® assay, the experimental conditions are essentially similar; at the end of the incubation period, 20 microliters of the MTT solution is added per well and the samples are incubated for an additional four hours, rinsed, and absorbance at 570 nm was measured. Results for the inhibition of cell proliferation are reported as the IC50 (the concentration resulting in 50% inhibition of proliferation of the cell population) and are listed in Table 5 below. Cell lines include lung, colon, prostate, breast, ovarian, and pancreatic cancer lines.

The nature of data set [9]: In vitro stability in human liver microsomes. Format: in vitro ADME.

T1 sequence (Q16875 whole entry): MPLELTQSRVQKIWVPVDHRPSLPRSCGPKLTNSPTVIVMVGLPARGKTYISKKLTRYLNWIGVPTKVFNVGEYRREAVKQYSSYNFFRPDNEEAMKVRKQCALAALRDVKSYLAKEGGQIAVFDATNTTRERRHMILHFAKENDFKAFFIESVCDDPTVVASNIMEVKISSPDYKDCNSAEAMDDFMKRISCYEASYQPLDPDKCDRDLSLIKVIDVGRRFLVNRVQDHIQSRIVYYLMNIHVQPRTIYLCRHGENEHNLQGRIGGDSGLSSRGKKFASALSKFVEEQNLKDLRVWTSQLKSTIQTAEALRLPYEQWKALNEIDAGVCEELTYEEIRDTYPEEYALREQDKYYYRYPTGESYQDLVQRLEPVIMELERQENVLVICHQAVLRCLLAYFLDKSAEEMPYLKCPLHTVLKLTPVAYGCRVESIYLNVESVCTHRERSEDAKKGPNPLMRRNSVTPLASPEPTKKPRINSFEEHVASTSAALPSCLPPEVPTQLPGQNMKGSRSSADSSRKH

Regarding `O=C(/C=C/c1ccc2ccccc2n1)c1ccncc1` [PFK-015], the body weight loss entry in data set [1] is listed as “higher than 15%”. For the same molecule, the IC50 stood at 1.2 ± 0.1 µM in data set [2], 4.7 ± 1.6 µM in [3], 0.318 ± 0.019 µM in data set [6] and 0.8 ± 0.1 µM in [8]. Also, the clearance in data set [4] was 46 mL/min/kg. For the same molecule, in [4], the half-life is 5 h. The AUC(0-inf) in data set [4] (read-out: AUC0-inf) stood at 1800 ng·h/mL. For the same molecule, the peak concentration (Cmax) in data set [4] (read-out: Cmax) came to 3050 ng/mL. Also, the MTD stood at 30 mg/kg in [5] and 12 mg/kg in [7] (rat, in vivo, repeat dosing schedule). The “Adverse observations in toxicology study” value in data set [7] (repeat dosing, PFK-158 5 to 30 mg/kg, PFK-015 12 and 25 mg/kg) is reported as “adverse observations at both dose levels”. The “Percent metabolized after 1 hr” value in [9] came out at 67%.
